{"source": "paper PMC12264794", "about": "“Homoleptic complexes of titanium(IV) fused with O^N^O Schiff base derivatives: design, BSA–DNA interaction, molecular docking, DFT and cytotoxicity” (RSC Advances, 2025)", "tested_on": "CT-DNA", "assay": "UV-vis absorption titration with CT-DNA", "type": "binding, calf", "experimental": "The UV-vis titration technique was employed to conduct DNA binding investigations of the newly synthesized Ti(IV)complexes. The binding interactions between Ti(IV) complexes and CT-DNA 5 mM (5 × 10^−5 M) produced in PBS buffer were assessed in a 5 mM phosphate buffer (PBS) with a pH of 7.4. The ratio of UV absorbance of CT-DNA at each position, 260 and 280 nm, was confirmed. The concentration of each nucleotide was calculated using the molar absorption coefficient (6600 m^−1) of CT-DNA at 260 nm. Additional dilutions were made in 5 mM PBS buffer solution, and stock solutions of metal complexes were prepared in DMSO. DNA binding experiments were performed with a fixed concentration of the complex (20 μM) and increasing concentrations of CT-DNA (0–80 μM) in sample solutions to detect the CT-DNA absorbance peak.[41,42]\nUV-vis spectra typically show a shift in wavelength and a change in absorption spectra as a result of the interaction of the Ti(IV) complexes with DNA. […] Then, using eqn (4), the binding characteristics for the aforementioned complexes, including binding constant (Kb) and binding sites, were determined.4 [drawing 4] where εa, εf, and εb represent the apparent extinction coefficient of the complex, the extinction coefficient of the complex in its free form and the extinction coefficient of the complex when completely bound to DNA."}
{"smiles": "[O-]C(=NN=Cc1cc(F)ccc1[O-])c1ccncc1.[O-]C(=NN=Cc1cc(F)ccc1[O-])c1ccncc1.[Ti+4]", "note": "[Ti-4-IF]", "values": [{"measurement": "Binding constant with DNA", "value": 297000, "unit": "M⁻¹"}]}
